pIC50: −log10 of the molar value.
How the values were obtained:
ER-α in MCF-7 cells = target: T1, ER-α in MCF-7 cells (Homo sapiens, UniProt P03372); experiment: Breast Cancer Cell ER-α In Cell Western Assay (SP1); format: cell-based; conditions: 4 or 24 hr post compound addition; for Emax: MCF7, SP1 antibody, read-out: ER-α In Cell Western Assay (SP1) Max Response; for DC50: SP1 antibody, read-out: ER-α In Cell Western Assay (SP1) IC50
T1 construct: endogenous in cells; host or cells: MCF-7
T1 sequence (P03372 1-595): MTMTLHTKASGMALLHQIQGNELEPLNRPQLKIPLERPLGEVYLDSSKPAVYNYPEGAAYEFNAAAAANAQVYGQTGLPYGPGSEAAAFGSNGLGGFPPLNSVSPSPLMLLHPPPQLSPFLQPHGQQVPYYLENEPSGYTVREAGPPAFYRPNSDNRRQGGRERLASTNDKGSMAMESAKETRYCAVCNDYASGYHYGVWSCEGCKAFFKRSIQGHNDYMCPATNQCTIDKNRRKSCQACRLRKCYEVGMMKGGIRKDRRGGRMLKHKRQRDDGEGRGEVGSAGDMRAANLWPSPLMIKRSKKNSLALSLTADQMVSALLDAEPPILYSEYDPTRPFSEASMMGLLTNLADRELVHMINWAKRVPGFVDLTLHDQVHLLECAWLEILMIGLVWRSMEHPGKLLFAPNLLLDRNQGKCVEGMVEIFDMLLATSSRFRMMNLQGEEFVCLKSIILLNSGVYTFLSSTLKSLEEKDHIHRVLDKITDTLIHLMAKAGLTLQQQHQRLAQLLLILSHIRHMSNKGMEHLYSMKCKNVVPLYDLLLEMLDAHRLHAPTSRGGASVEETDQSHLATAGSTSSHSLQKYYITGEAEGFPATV
Outline: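 ER-α levels quantified by in-cell western: SP1 signal normalised to DRAQ5 DNA stain, relative to untreated cells (% ER). Compounds at 0.3–0.000003 μM final, 11-point semilog series, 4 or 24 h exposure of MCF-7 cells grown in charcoal-stripped serum.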

MCF-7 cells = experiment: Breast Cancer Cell Viability Assays (MCF-7, CellTiter-Glo); format: cell-based; conditions: 5 days' compound exposure; for pIC50: Homo sapiens, MCF7, 120 h
Outline: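 Percent viability, background-subtracted against untreated wells, was taken from CellTiter-Glo luminescence after 5 days' exposure of MCF-7 cells. Compounds were tested at eleven semilog concentrations, final 0.3–0.000003 μM, in RPMI containing 10% FBS.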

Compound | Emax (ER-α in MCF-7 cells) [%] | DC50 (ER-α in MCF-7 cells) [nM] | pIC50 (MCF-7 cells) | MCF7 Viability Assay Max Response (MCF-7 cells)
N#Cc1c(/C(=C(/c2ccccc2)C2CCC2)c2ccc(/C=C/C(=O)O)cc2)ccc2[nH]nc(F)c12 [Example 12, (E)-3-(4-((E)-1-(4-Cyano-3-fluoro-1H-indazol-5-yl)-2-cyclobutyl-2-phenylvinyl)phenyl)acrylic acid] | ≥ 40 | ≤ 100 | ≥ 7.00 | ++ (++ = a single % value ≧ 40%)
CC/C(=C(/c1ccc(/C=C/C(=O)O)cc1)c1ccc2[nH]nc(F)c2c1)c1ccc(Oc2cncc(S(C)(=O)=O)n2)cc1 [Example 58, (E)-3-(4-((E)-1-(3-Fluoro-1H-indazol-5-yl)-2-(4-((6-(methylsulfonyl)pyrazin-2-yl)oxy)phenyl)but-1-en-1-yl)phenyl)acrylic acid] | ≥ 40 | > 100 | < 7.00 | ++ (++ = a single % value ≧ 40%)
O=C(O)/C=C/c1ccc(/C(=C(\c2ccc(F)cc2Cl)C2CCC2)c2cccc3[nH]ncc23)cc1 [Example 80, (E)-3-(4-((E)-2-(2-Chloro-4-fluorophenyl)-2-cyclobutyl-1-(1H-indazol-4-yl)vinyl)phenyl)acrylic acid] | ≥ 40 | ≤ 100 | ≥ 7.00 | ++ (++ = a single % value ≧ 40%)
N#Cc1ccc(/C(=C(\c2ccc(/C=C/C(=O)O)cc2)c2ccc3[nH]ncc3c2F)C2CCC2)c(F)c1 [Example 60, (E)-3-(4-((E)-2-(4-Cyano-2-fluorophenyl)-2-cycobutyl-1-(4-fluoro-1H-indazol-5-yl)vinyl)phenyl)acrylic acid] | ≥ 40 | ≤ 100 | ≥ 7.00 | ++ (++ = a single % value ≧ 40%)
O=C(O)/C=C/c1ccc(/C(=C(\c2ccccc2)C2CCC2)c2ccc3[nH]ncc3n2)cc1 [Example 33, (E)-3-(4-((E)-2-Cyclobutyl-2-phenyl-1-(1H-pyrazolo[4,3-b]pyridin-5-yl)vinyl)phenyl)acrylic acid] | ≥ 40 | ≤ 100 | ≥ 7.00 | ++ (++ = a single % value ≧ 40%)
CC/C(=C(/c1ccc(/C=C/C(=O)O)cc1)c1ccc2[nH]nc(F)c2c1)c1cccc(Oc2cncc(S(C)(=O)=O)n2)c1 [Example 56, (E)-3-(4-((E)-1-(3-Fluoro-1H-indazol-5-yl)-2-(3-((6-(methylsulfonyl)pyrazin-2-yl)oxy)phenyl)but-1-en-1-yl)phenyl)acrylic acid] | ≥ 40 | ≤ 100 | < 7.00 | ++ (++ = a single % value ≧ 40%)
CC/C(=C(/c1ccc(/C=C/C(=O)O)cc1)c1ccc2[nH]ncc2c1)c1cccc(S(=O)(=O)C(F)(F)F)c1 [Example 41, (E)-3-(4-((E)-1-(1H-Indazol-5-yl)-2-(3-((trifluoromethyl)sulfonyl)phenyl)but-1-en-1-yl)phenyl)acrylic acid] | ≥ 40 | ≤ 100 | ≥ 7.00 | ++ (++ = a single % value ≧ 40%)
O=C(O)/C=C/c1ccc(/C(=C(\c2ccccc2)C2CCC2)c2ccc3[nH]c(=O)oc3c2)cc1 [Example 27, (E)-3-(4-((E)-2-Cyclobutyl-1-(2-oxo-2,3-dihydrobenzo[d]oxazol-6-yl)-2-phenylvinyl)phenyl)acrylic acid] | ≥ 40 | ≤ 100 | ≥ 7.00 | ++ (++ = a single % value ≧ 40%)
CC/C(=C(/c1ccc(/C=C/C(=O)O)cc1)c1ccc2[nH]ncc2c1C#N)c1ccc(F)cc1Cl [Example 6, (E)-3-(4-((E)-2-(2-Chloro-4-fluorophenyl)-1-(4-cyano-1H-indazol-5-yl)but-1-en-1-yl)phenyl)acrylic acid] | ≥ 40 | ≤ 100 | ≥ 7.00 | ++ (++ = a single % value ≧ 40%)
N#Cc1cc(F)ccc1/C(=C(\c1ccc(/C=C/C(=O)O)cc1)c1ccc2[nH]nc(F)c2c1)C1CCC1 [Example 49, (E)-3-(4-((E)-2-(2-Cyano-4-fluorophenyl)-2-cyclobutyl-1-(3-fluoro-1H-indazol-5-yl)vinyl)phenyl)acrylic acid] | ≥ 40 | ≤ 100 | ≥ 7.00 | ++ (++ = a single % value ≧ 40%)
N#Cc1cc(Cl)ccc1/C(=C(\c1ccc(/C=C/C(=O)O)cc1)c1ccc2[nH]ncc2c1F)C1CCC1 [Example 61, (E)-3-(4-((E)-2-(4-Chloro-2-cyanophenyl)-2-cyclobutyl-1-(4-fluoro-1H-indazol-5-yl)vinyl)phenyl)acrylic acid] | ≥ 40 | ≤ 100 | ≥ 7.00 | ++ (++ = a single % value ≧ 40%)
COc1ccc(/C(=C(\c2ccc(/C=C/C(=O)O)cc2)c2ccc3[nH]nc(F)c3c2)C2CCC2)c(C#N)c1 [Example 44, (E)-3-(4-((E)-2-(2-Cyano-4-methoxyphenyl)-2-cyclobutyl-1-(3-fluoro-1H-indazol-5-yl)vinyl)phenyl)acrylic acid] | ≥ 40 | ≤ 100 | ≥ 7.00 | ++ (++ = a single % value ≧ 40%)

Second part, led by results:

Emax (ER-α in MCF-7 cells) [%] | DC50 (ER-α in MCF-7 cells) [nM] | pIC50 (MCF-7 cells) | Compound | MCF7 Viability Assay Max Response (MCF-7 cells)
≥ 40 | ≤ 100 | ≥ 7.00 | N#Cc1c(/C(=C(/c2ccc(F)cc2Cl)C2CCC2)c2ccc(/C=C/C(=O)O)cc2)ccc2[nH]nc(F)c12 [Example 225, (E)-3-(4-((E)-2-(2-Chloro-4-fluorophenyl)-1-(4-cyano-3-fluoro-1H-indazol-5-yl)-2-cyclobutylvinyl)phenyl)acrylic acid] | ++ (++ = a single % value ≧ 40%)
≥ 40 | ≤ 100 | ≥ 7.00 | COc1ccc(/C(=C(\c2ccc(/C=C/C(=O)O)cc2)c2ccc3scnc3c2)C2CCC2)c(C)c1 [Example 240, (E)-3-(4-((E)-1-(Benzo[d]thiazol-5-yl)-2-cyclobutyl-2-(4-methoxy-2-methylphenyl)vinyl)phenyl)acrylic acid] | ++ (++ = a single % value ≧ 40%)
≥ 40 | ≤ 100 | ≥ 7.00 | Cc1cscc1/C(=C(\c1ccc(/C=C/C(=O)O)cc1)c1cccc2[nH]ncc12)C1CCC1 [Example 126, (E)-3-(4-((E)-2-Cyclobutyl-1-(1H-indazol-4-yl)-2-(4-methylthiophen-3-yl)vinyl)phenyl)acrylic acid] | ++ (++ = a single % value ≧ 40%)
≥ 40 | ≤ 100 | ≥ 7.00 | N#Cc1cc(Cl)ccc1/C(=C(\c1ccc(/C=C/C(=O)O)cc1)c1ccc2[nH]nc(F)c2c1)C1CCC1 [Example 108, (E)-3-(4-((E)-2-(4-Chloro-2-cyanophenyl)-2-cyclobutyl-1-(3-fluoro-1H-indazol-5-yl)vinyl)phenyl)acrylic acid] | ++ (++ = a single % value ≧ 40%)
≥ 40 | ≤ 100 | ≥ 7.00 | O=C(O)/C=C/c1ccc(/C(=C(\c2ccccc2F)C2CCC2)c2ccc3[nH]nc(F)c3c2)cc1 [Example 123, (E)-3-(4-((E)-2-Cyclobutyl-1-(3-fluoro-1H-indazol-5-yl)-2-(2-fluorophenyl)vinyl)phenyl)acrylic acid] | ++ (++ = a single % value ≧ 40%)
≥ 40 | ≤ 100 | ≥ 7.00 | COc1ncc(/C(=C(\c2ccc(/C=C/C(=O)O)cc2)c2ccc3[nH]nc(F)c3c2)C2CCC2)cc1F [Example 137, (E)-3-(4-((E)-2-Cyclobutyl-1-(3-fluoro-1H-indazol-5-yl)-2-(5-fluoro-6-methoxypyridin-3-yl)vinyl)phenyl)acrylic acid] | ++ (++ = a single % value ≧ 40%)
≥ 40 | ≤ 100 | ≥ 7.00 | COc1cccc(/C(=C(\c2ccc(/C=C/C(=O)O)cc2)c2ccc3[nH]nc(F)c3c2)C2CCC2)n1 [Example 147, (E)-3-(4-((E)-2-Cyclobutyl-1-(3-fluoro-1H-indazol-5-yl)-2-(6-methoxypyridin-2-yl)vinyl)phenyl)acrylic acid] | ++ (++ = a single % value ≧ 40%)
≥ 40 | ≤ 100 | ≥ 7.00 | O=C(O)/C=C/c1ccc(/C(=C(\c2cccc(N3CCCC3)c2)C2CCC2)c2ccc3[nH]nc(F)c3c2)cc1 [Example 87, (E)-3-(4-((E)-2-Cyclobutyl-1-(3-fluoro-1H-indazol-5-yl)-2-(3-(pyrrolidin-1-yl)phenyl)vinyl)phenyl)acrylic acid] | ++ (++ = a single % value ≧ 40%)
